Molecules are shown by their SMILES.

Assay type in all cases: in vivo
In data set [1] the test system is German cockroaches (Blattella germanica). Kind of data set: Test Example 7: control test against German cockroaches, spray in chamber. Particulars: adult German cockroaches; 1.5 mL sprayed; concentration [%]: isocycloseram 0.05, imiprothrin 0.01, cypermethrin 0.01, alone or mixed; 120 minutes after spraying. How it is done: (§1) Next, the usefulness of the inventive composition for controlling pests will be indicated by Test Examples. In general, the control effect to be expected when treated with a mixture obtained by mixing given two or three types of active ingredient compounds is determined by the Colby's calculation equation represented by the following [Equation 1] and [Equation 2].
(§2) [formula] • P: moribund and mortal rates (%) when treated with an active ingredient compound X in the concentration of m [ppm] • Q: moribund and mortal rates (%) when treated with an active ingredient compound Y in the concentration of n [ppm] • EA: moribund and mortal rates (%) when treated with an active ingredient compound X in the concentration of m [ppm] and an active ingredient compound Y in the concentration of n [ppm] (hereinafter referred to as expected value A) […]
(§3) Regarding the synergistic effect of three types of the active ingredient compounds, in case where the moribund and mortal rates (%) when actually treated with a mixture obtained by mixing three types of the active ingredient compounds exceed the expected value A calculated by using the moribund and mortal rates (%) when actually treated with a mixture obtained by mixing two types of the active ingredient compounds among three types thereof, and the moribund and mortal rates (%) calculated when actually treated the remaining one type of the active ingredient compound, or the expected value B (%) calculated from the moribund and mortal rates (%) when actually treated with each of three types of the active ingredient compounds alone, it was determined that the synergistic effect exists. […]

The test system is the same in data set [2]. Kind of data set: Test Example 4: control test against German cockroaches, spray in chamber. The conditions noted are these: adult German cockroaches; 1.5 mL sprayed; concentration [%]: nicofluprole 0.01, imiprothrin 0.01, deltamethrin 0.0002, alone or mixed; 45 minutes after spraying. Here is the method: as §1, §2, §3
For data set [3] the test system is unchanged. Description: Test Example 10: control test against German cockroaches, spray in chamber. Particulars: adult German cockroaches; 1.5 mL sprayed; concentration [%]: nicofluprole 0.01, imiprothrin 0.01, permethrin 0.05, alone or mixed; 60 minutes after spraying. Here is the method: as §1, §2, §3
Data set [4] has the same test system. Description: Test Example 2: control test against German cockroaches, spray in chamber. Particulars: adult German cockroaches; 1.5 mL sprayed; concentration [%]: nicofluprole 0.01, imiprothrin 0.01, cypermethrin 0.01, alone or mixed; 120 minutes after spraying. Here is the method:
as §1, §2, §3

Regarding `C#CCN1CC(=O)N(COC(=O)[C@@H]2C(C=C(C)C)C2(C)C)C1=O` (mixture of isomers) [Imiprothrin, imiprothrin], the “Moribund and mortal rates [%] after 120 minutes” value is reported as 5% in data set [1] and 15% in data set [4]. Also, in data set [2], the “Moribund and mortal rates [%] after 45 minutes” value was 65%. Moreover, the “Moribund and mortal rates [%] after 60 minutes” value in data set [3] was 40%.

Values taken from US20240373851A1, “PEST CONTROL COMPOSITION AND PEST CONTROL METHOD” (SUMITOMO CHEMICAL COMPANY, LIMITED, priority 2021, published 2024).
